Measured values: US10450300B2, “Wnt signaling pathway inhibitors and therapeutic applications thereof” (Suzhou Yunxuan Yiyao Keji Youxian Gongsi, priority 2015, dated 2019)

Tested on: Wnt pathway
Experiment: Wnt pathway Super-top flash (STF) reporter gene assay (primary assay)
Format: cell-based
Settings: HEK293 STF cells co-cultured 1:1 with L Wnt3A cells; 48 h incubation; inhibition of luminescence signaling
Method: The primary assay is based on Wnt pathway Super-top flash (STF) reporter gene assay:
HEK293 STF stable clones (HEK293 cells stably transfected with “Super-Top Flash” TCF-luciferase reporter plasmid) were kept in complete culture medium (DMEM with 4 mM L-Gln, 1.5 g/L sodium bicarbonate and 4.5 g/L glucose containing 6 μg/mL Blasticidin and 10% FBS). L Wnt3A cells (CRL-2647, ATCC) were kept in DMEM (Gibico) containing 10% FBS (Hyclone). HEK293 STF and L Wnt3A cells were harvested when 90% confluence and cell suspension was mixed with a fixed ratio of 1:1 (HEK293 STF: L Wnt3A). 100 μL/well of mixed cells suspension was added to the 96-well-plate with final cell concentration of 12,000 cells/well and then cultured for an additional 24 hours before adding compounds.
Compounds were diluted in DMSO in sequence and then diluted with DMEM medium. 20 μL medium containing compound was added to the cells according to the pre-setting dose. Cell plates were incubated at 37° C. for an additional 48 hours.
50 μL luciferase solution (Bright-Glo, Promega) was added to each well […] the 48 h incubation. The plates were incubated at room temperature for 5 min under gentle shaking. Luminescence signaling was measured with a plate reader (PHERAstar FS, BMG). The IC50 (potency) of compounds was calculated based on the inhibition of luminescence signaling.

| Compound | IC50 |
| --- | --- |
| COc1cc(CNc2nccc(-c3ccc4ncccc4c3)c2F)cnc1-c1ccnc(C)c1 [Compound A-106] | 0.24 nM |
| N#Cc1ccc2cc(CNc3nccc(-c4ccc5ncccc5c4)n3)cnc2c1 [Compound A-177] | 100 nM |
| Cc1cc(-c2ncc(CNc3nccc(-c4ccc5ncccc5c4)n3)cc2F)ccn1 [Compound A-168] | 0.85 nM |
| Cc1cc(-c2ncc(CNc3nccc(-c4ccc5ncccc5c4)c3F)cc2F)ccn1 [Compound A-98] | 0.06 nM |
| O=S1(=O)CCN(c2ccc(CNc3nsc(-c4ccc5ncccc5c4)n3)cn2)CC1 [Compound A-188] | 4.6 nM |
| Cc1cn(-c2ccc(CNc3nsc(-c4ccc5ncccc5c4)n3)cc2)cn1 [Compound A-187] | 51 nM |
| Cc1cc(-c2ncc(CNc3nsc(-c4ccc5ncccc5c4)n3)cc2F)ccn1 [Compound A-192] | 0.1 nM |
| Cc1cc(-c2ncc(CNc3nccc(-c4cncc(F)c4)c3F)cc2F)ccn1 [Compound A-115] | 7 nM |
| Cc1cc(-c2ncc(CNc3nsc(-c4cc5cccnc5cn4)n3)cc2F)ccn1 [Compound A-195] | 0.84 nM |
| Cc1cc(-c2ccc(CNc3ncnc(-c4ccc5ccccc5c4)c3F)nc2)ccn1 [Compound A-37] | 2.4 nM |
| Cc1cc(-c2ccc(CNc3cccc(-c4ccc5ccccc5c4)c3)cc2)ccn1 [Compound A-149] | 603 nM |
| Cc1cc(-c2ccc(CNc3ncnc(N4CCc5ccccc5C4)c3F)cc2)ccn1 [Compound A-22] | 14 nM |
| Cc1cc(-c2ncc(CNc3ncnc(-c4ccc5ncsc5c4)c3F)cc2F)ccn1 [Compound A-49] | 0.39 nM |
| COc1cc(CNc2nccc(-c3cc4cccnc4cn3)n2)cnc1-c1ccnc(C)c1 [Compound A-182] | 0.64 nM |
| Cc1cc(-c2ncc(CNc3ncnc(N4CCc5ncccc5C4)c3F)cc2F)ccn1 [Compound A-45] | 0.4 nM |
| Cc1cc(-c2ncc(CNc3ncnc(N4CCc5ncsc5C4)c3F)cc2F)ccn1 [Compound A-54] | 0.67 nM |
| Cc1cc(-c2ccc(CNc3ncnc(-c4ccc(Cl)cc4)c3F)cc2)ccn1 [Compound A-20] | 211 nM |
| N#Cc1ccc2nc(CNc3nccc(-c4ccc5ncccc5c4)n3)ccc2c1 [Compound A-178] | 200 nM |
| COc1cc(CNc2nccc(-c3ccc4ncccc4c3)n2)cnc1-c1ccnc(C)c1 [Compound A-175] | 0.74 nM |
| Cc1cc(-c2ncc(CNc3nccc(-c4ccc5ncccc5n4)c3F)cc2F)ccn1 [Compound A-108] | 1 nM |
| Cc1cn(-c2ccc(CNc3nccc(-c4ccc5ncccc5c4)c3F)cc2)cn1 [Compound A-107] | 16 nM |

| Compound | IC50 |
| --- | --- |
| Fc1c(-c2ccc3ncccc3c2)ccnc1NCc1ccc(-n2ccnc2)cc1 [Compound A-105] | 5.2 nM |
| Cc1cc(-c2ccc(CNc3nccc(-c4ccc5ncncc5c4)n3)cc2)ccn1 [Compound A-159] | 17 nM |
| N#Cc1cnc2cc(CNc3nccc(-c4ccc5ncccc5c4)c3F)ccc2c1 [Compound A-118] | 318 nM |
| Cc1cc(-c2ncc(CNc3ncnc(-c4cc5cccnc5cn4)c3F)cc2C#N)ccn1 [Compound A-86] | 0.34 nM |
| Cc1cc(-c2ccc(CNc3cc(-c4ccc5ccccc5c4)nc(N)n3)cc2)ccn1 [Compound A-153] | 3000 nM |
| CSc1ncc2c(n1)CCN(c1cc(NCc3ccc(-c4ccnc(C)c4)cc3)ncn1)C2=O [Compound A-137, 6-(6-(4-(2-methylpyridin-4-yl)benzylamino)pyrimidin-4-yl)-2-(methylthio)-7,8-dihydropyrido[4,3-d]pyrimidin-5(6H)-one] | 3000 nM |
| Cc1cc(-c2ccc(CNc3cc(-c4ccc5ccccc5c4)nc(C)n3)cc2)ccn1 [Compound A-139] | 3000 nM |
| Fc1c(-c2ccc3ncccc3c2)ccnc1NCc1ccc(-c2ccncc2)cc1 [Compound A-104] | 0.11 nM |
| Cc1cc(-c2ccc(CNc3ncnc(-c4ccc5ccncc5c4)c3F)cc2)ccn1 [Compound A-7] | 7.4 nM |
| Cn1nccc1-c1ccc(CNc2ncnc(-c3ccc4ccccc4c3)c2F)cc1 [Compound A-39] | 129 nM |
| Cc1cc(-c2ccc(CNc3ncnc(-c4ccc5ncsc5c4)c3F)cc2)ccn1 [Compound A-12] | 0.3 nM |
| Fc1c(NCc2ccc(-c3ccncc3)cc2)ncnc1-c1ccc2ccccc2c1 [Compound A-38] | 5 nM |
| Cc1cc(-c2ccc(CNc3ncnc(-c4cnc5ccccc5c4)c3F)cc2)ccn1 [Compound A-2] | 2.9 nM |
| N#Cc1ccc2cc(CNc3ncnc(-c4ccc5ncccc5c4)c3F)cnc2c1 [Compound A-75] | 0.52 nM |
| CCNc1nc(NCc2ccc(-c3ccnc(C)c3)cc2)cc(-c2ccc3ccccc3c2)n1 [Compound A-142] | 3000 nM |
| Fc1c(NCc2ccc3cnccc3c2)ncnc1-c1ccc2ncccc2c1 [Compound A-41] | 55 nM |
| Cc1cc(-c2ccc(CNc3ncnc(N4CCc5ncccc5C4)c3F)cc2)ccn1 [Compound A-26] | 1.5 nM |
| Cc1cc(-c2ncc(CNc3nsc(N4CCc5ncccc5C4)n3)cc2C#N)ccn1 [Compound A-198, 5-((5-(7,8-dihydro-1,6-naphthyridin-6(5H)-yl)-1,2,4-thiadiazol-3-ylamino)methyl)-2′-methyl-2,4′-bipyridine-3-carbonitrile] | 0.42 nM |
| Cc1cc(-c2ccc(CNc3ncnc(-c4ccc5c(cnn5C)c4)c3F)cc2)ccn1 [Compound A-15] | 19 nM |
| Cc1cc(-c2ncc(CNc3nccc(-c4cc5cccnc5cn4)n3)cc2C#N)ccn1 [Compound A-183, 5-((4-(1,7-naphthyridin-6-yl)pyrimidin-2-ylamino)methyl)-2′-methyl-2,4′-bipyridine-3-carbonitrile] | 2.1 nM |
| Cc1cc(-c2ncc(CNc3ncnc(N4CCn5nncc5C4)c3F)cc2F)ccn1 [Compound A-95] | 15 nM |

| Compound | IC50 |
| --- | --- |
| Cc1cc(-c2cnc(CNc3ncnc(-c4ccc5ncccc5c4)c3F)cn2)ccn1 [Compound A-63] | 2 nM |
| Cc1cc(-c2ncc(CNc3nccc(-c4ccc5ncccc5c4)c3F)cc2C#N)ccn1 [Compound A-99] | 0.11 nM |
| Cc1cc(-c2ccc(CNc3ncnc(N4CCc5c(Br)cccc5C4)c3F)cc2)ccn1 [Compound A-25] | > 1000 nM |
| Cc1cc(-c2ccc(CNc3nc(N4CCc5ncccc5C4)ncc3F)cc2)ccn1 [Compound A-161] | 3000 nM |
| Cc1cc(-c2ccc(CNc3ncnc(-c4ccc5nccn5c4)c3F)cc2)ccn1 [Compound A-11] | 1.6 nM |
| Cc1cc(-c2ncc(CNc3ncnc(N4CCn5nnnc5C4)c3F)cc2F)ccn1 [Compound A-93] | 40 nM |
| Cc1cc(-c2ccc(CNc3nccc(-c4ccc5ncccc5c4)c3F)cn2)ccn1 [Compound A-101] | 0.31 nM |
| Cc1cc(-c2ccc(CNc3ncnc(-c4ccc5ncncc5c4)c3F)cc2)ccn1 [Compound A-9] | 2.8 nM |
| N#Cc1ccc2cc(CNc3ncnc(-c4ccc5ncccc5c4)c3F)ccc2c1 [Compound A-42, 6-((5-fluoro-6-(quinolin-6-yl)pyrimidin-4-ylamino)methyl)-2-naphthonitrile] | 0.7 nM |
| Cc1cc(-c2ncc(CNc3nsc(-c4cc5cccnc5cn4)n3)cc2C#N)ccn1 [Compound A-197] | 0.31 nM |
| N#Cc1cnc2cc(CNc3nccc(-c4ccc5ncccc5c4)n3)ccc2c1 [Compound A-179, 7-((4-(quinolin-6-yl)pyrimidin-2-ylamino)methyl)quinoline-3-carbonitrile] | 500 nM |
| Cc1cc(-c2ccc(CNc3ncnc(-c4ccc5ncccc5c4)c3F)cn2)ccn1 [Compound A-31] | 1 nM |
| Cc1cc(-c2ncc(CNc3nccc(-c4ccc5ncccc5n4)c3F)cc2C#N)ccn1 [Compound A-126] | 0.04 nM |
| Cc1cc(-c2ncc(CNc3ncnc(N4CCOc5ncccc5C4)c3F)cc2F)ccn1 [Compound A-89] | 14 nM |
| N#Cc1cnc2cc(CNc3ncnc(-c4ccc5ncccc5c4)c3F)ccc2c1 [Compound A-71] | 0.29 nM |
| c1cnc2ccc(-c3ccnc(NCc4ccc(-n5ccnc5)cc4)n3)cc2c1 [Compound A-173] | 106 nM |
| N#Cc1ccc2cc(CNc3nccc(-c4ccc5ncccc5c4)c3F)cnc2c1 [Compound A-119] | 10 nM |
| Fc1c(NCc2ccc(-c3ccnnc3)cc2)ncnc1-c1ccc2ncccc2c1 [Compound A-67] | 10 nM |
| N#Cc1ccc2cc(CNc3ncnc(N4CCc5ncccc5C4)c3F)ccc2c1 [Compound A-44] | 1 nM |
| Cc1cc(-c2ccc(CNc3ncnc(-c4ccc5ncsc5c4)c3F)cn2)ccn1 [Compound A-50] | 1 nM |
